Key:
Assay type in all cases: in vivo
[1] = test system: panelists; assay: Confirmation of umami imparting and saltiness enhancing effect in 0.3 mass % sodium chloride (point score); settings: average point of 10 panelists vs control, 0 no change, 1 slightly higher, 2 higher, 3 considerably higher, 4 extremely higher umami and saltiness, 5 bitter as lacking balance
Experimental: An aqueous 0.3 mass % sodium chloride solution (control), and solutions of the invention products 1 to 6 each dissolved in a 0.3 mass % sodium chloride solution to have the concentration shown in Table 5 were prepared. As a comparative product, a solution was prepared by dissolving the comparative product 1 in 0.3 mass % sodium chloride. Well-trained 10 panelists tasted the solutions for organoleptic evaluation of umami impartment and saltiness enhancement.
Umami and saltiness scores are as follows, based on the aqueous 0.3 mass % sodium chloride solution as a control. Each sample was given any of a point 0, no change from control; 1, slightly higher umami and saltiness than control; 2, higher umami and saltiness than control; 3, considerably higher umami and saltiness than control; 4, extremely higher umami and saltiness than control; and 5, bitter as lacking balance of umami and saltiness.

[2] = test system: panelists; assay: Flavor evaluation of ethanol solution (bottle mouth and flavor paper); settings: 1% ethanol solution, typical evaluation, 5 panelists
Experimental: A […] ethanol solution of the invention products 1 to 6 prepared in Examples 1 to 6 was prepared as an evaluation solution. The evaluation solution was prepared in a sample bottle. Regarding the flavor of the sample smelling from the bottle mouth and the flavor of a flavor paper prepared by infiltrating the evaluation solution into a paper, well-trained 5 panelists tested the solution for flavor evaluation.
A 0.1% ethanol solution of the invention product 101 (2-(3-benzyloxypropyl)pyridine) prepared in Example 101 was prepared as an evaluation solution. The evaluation solution was prepared in a sample bottle. Regarding the flavor of the sample smelling from the bottle mouth and the flavor of a flavor paper prepared by infiltrating the evaluation solution into a paper, well-trained 5 panelists tested the solution for flavor evaluation. A typical evaluation of the product is as follows.

[3] = test system: panelists; assay: Confirmation of umami in water (point score); settings: average point of 10 panelists, 0 no difference from control (water), 1 somewhat stronger, 2 stronger, 3 considerably stronger, 4 poor taste balance
Experimental: As a comparative product, a solution was prepared by dissolving the comparative product 1 (2-(2-benzyloxyethyl)pyridine) to have the same concentration. Water with no addition was prepared as a control product. Well-trained 10 panelists tasted the solutions prepared by dissolving any the invention products 1 to 6 and the comparative product 1 for organoleptic evaluation of umami.
Umami evaluation was based on the control product of water.

[4] = 0.05 ppb in aqueous 0.3 mass % sodium chloride solution
[5] = 0.1 ppb in aqueous 0.3 mass % sodium chloride solution
[6] = 0.1 ppm in aqueous 0.3 mass % sodium chloride solution
[7] = 0.5 ppm in aqueous 0.3 mass % sodium chloride solution
[8] = 1 ppb in aqueous 0.3 mass % sodium chloride solution
[9] = 2 ppm in aqueous 0.3 mass % sodium chloride solution
[10] = 10 ppb in aqueous 0.3 mass % sodium chloride solution
[11] = 10 ppm in aqueous 0.3 mass % sodium chloride solution
[12] = 50 ppm in aqueous 0.3 mass % sodium chloride solution

SMILES	umami and saltiness (average point) [1, 4]	umami and saltiness (average point) [1, 5]	umami and saltiness (average point) [1, 6]	umami and saltiness (average point) [1, 7]	umami and saltiness (average point) [1, 8]	umami and saltiness (average point) [1, 9]	umami and saltiness (average point) [1, 10]	umami and saltiness (average point) [1, 11]	umami and saltiness (average point) [1, 12]	Flavor Evaluation [2]	umami (average point) ([3]; 0.1 ppm in water)	umami (average point) ([3]; 1 ppm in water)	umami (average point) ([3]; 2 ppb in water)	umami (average point) ([3]; 10 ppb in water)	umami (average point) ([3]; 20 ppm in water)	umami (average point) ([3]; 200 ppm in water)	umami (average point) ([3]; 500 ppm in water)	umami (average point) ([3]; 2000 ppm in water)
c1ccc(COCCCCc2ccccn2)cc1 [invention product 1, 2-(4-benzyloxybutyl)pyridine]	0.0	0.8	3.2	3.7	1.4	4.3	2.3	4.7	4.9	Earthy	1.6	2.3	0.0	0.8	2.9	3.4	3.8	4.0
c1ccc(CCOCCc2ccccn2)cc1 [invention product 2, 2-(2-phenylethoxyethyl)pyridine]	0.0	0.7	3.0	3.9	1.5	4.4	2.4	4.6	5.0	Earthy, hyacinthine	1.5	2.0	0.0	0.7	2.8	3.2	3.8	4.0
COc1ccc(COCCCc2ccccn2)cc1 [invention product 3, 2-[3-(p-methoxybenzyloxy)propyl]pyridine]	0.0	0.8	3.3	3.5	1.6	4.2	2.6	4.8	4.9	Bitter almond	1.4	2.1	0.0	0.8	2.8	3.0	3.6	3.9
c1ccc(CCSCCc2ccccn2)cc1 [invention product 4, 2-(2-phenylethylthioethyl)pyridine]	0.0	0.6	3.4	3.8	1.8	4.5	2.3	4.8	5.0	Metallic spicy savor	1.6	2.2	0.0	0.7	3.0	3.6	3.9	4.0
Cc1ccc(COCCCc2ccccn2)cc1 [invention product 5, 2-[3-(p-methylbenzyloxy)propyl]pyridine]	0.0	0.8	3.0	3.6	1.5	4.2	2.2	4.6	4.8	Nutty	1.4	2.0	0.0	0.6	2.7	3.1	3.6	3.9
Cc1ccc(C)c(COCCCc2ccccn2)c1 [invention product 6, 2-[3-(2,5-dimethylbenzyloxy)propyl]pyridine]	0.0	0.5	2.9	3.5	1.3	4.1	2.0	4.6	4.8	Rummy	1.2	2.0	0.0	0.5	2.6	3.0	3.6	3.9

Source: patent US10894772B2, “Flavor modulator having pyridine derivative or salt thereof as active ingredient” (T. HASEGAWA CO., LTD., priority 2015, dated 2021)
